Source: ChEMBL document CHEMBL1221208, “ATP-competitive inhibitors of the mitotic kinesin KSP that function via an allosteric mechanism” (Nat Chem Biol, 2007)
Calls of active or inactive are those of the source. The calls are words filed in the database; no cut-off is given here.

Assays:
[1] = target: T1, Kinesin-like protein KIF11 (Homo sapiens, UniProt P52732); assay: Inhibition of human wild type Eg5 using varying ATP levels in presence of saturating levels of microtubule by Lineweaver-Burke plot
T1 sequence (P52732 whole entry): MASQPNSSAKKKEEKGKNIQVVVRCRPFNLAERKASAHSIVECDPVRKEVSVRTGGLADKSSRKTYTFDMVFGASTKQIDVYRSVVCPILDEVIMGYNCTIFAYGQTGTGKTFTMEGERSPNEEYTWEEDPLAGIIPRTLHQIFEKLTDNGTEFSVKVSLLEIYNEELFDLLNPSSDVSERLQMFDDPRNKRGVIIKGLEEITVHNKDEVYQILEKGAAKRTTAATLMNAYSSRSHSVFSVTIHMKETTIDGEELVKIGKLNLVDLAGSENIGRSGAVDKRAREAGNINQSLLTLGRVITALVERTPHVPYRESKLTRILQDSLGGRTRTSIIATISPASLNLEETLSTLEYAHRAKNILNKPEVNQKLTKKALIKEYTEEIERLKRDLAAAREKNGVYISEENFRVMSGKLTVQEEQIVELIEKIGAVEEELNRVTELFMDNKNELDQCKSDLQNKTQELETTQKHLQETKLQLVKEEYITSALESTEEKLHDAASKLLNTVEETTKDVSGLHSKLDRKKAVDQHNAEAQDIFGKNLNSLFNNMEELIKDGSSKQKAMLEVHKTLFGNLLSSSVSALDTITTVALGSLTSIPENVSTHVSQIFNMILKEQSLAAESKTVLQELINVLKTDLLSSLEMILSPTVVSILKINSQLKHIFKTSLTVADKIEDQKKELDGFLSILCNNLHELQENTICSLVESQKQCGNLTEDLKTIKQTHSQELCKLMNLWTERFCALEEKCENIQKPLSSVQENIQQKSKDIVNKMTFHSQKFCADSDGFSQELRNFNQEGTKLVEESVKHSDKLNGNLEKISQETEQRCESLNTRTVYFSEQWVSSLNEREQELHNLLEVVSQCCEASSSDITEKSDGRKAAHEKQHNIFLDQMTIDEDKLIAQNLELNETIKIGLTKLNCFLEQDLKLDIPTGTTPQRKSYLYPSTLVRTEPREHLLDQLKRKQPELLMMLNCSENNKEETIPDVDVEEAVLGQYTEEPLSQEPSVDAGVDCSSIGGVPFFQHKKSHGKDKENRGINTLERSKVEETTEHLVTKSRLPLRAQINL

[2] = target: T2, Kinesin-like protein KIF11 (Homo sapiens) (UniProt P52732); assay: Binding affinity to human KSP assessed as photoaffinity labeling at Leu295 residue at 240 uM by photo affinity labeling study
T2 sequence (whole entry): T1 sequence (P52732 whole entry)

HCT-116 [3] = assay: Antiproliferative activity against 3x IC95 biaryl selected drug-resistant against human HCT116 cells after 72 hrs by Cell titer Glo assay; type: functional, cell-based; conditions: HCT-116, 72 h
HCT-116 [4] = assay: Antiproliferative activity against 3x IC95 biaryl selected human HCT116 cells expressing Kinesin-like protein KIF11 D130V mutant after 72 hrs by Cell titer Glo assay; type: functional, cell-based; conditions: HCT-116, 72 h
HCT-116 [5] = assay: Antiproliferative activity against IC50 biaryl selected drug-resistant against human HCT116 cells after 72 hrs by Cell titer Glo assay; type: functional, cell-based; conditions: HCT-116, 72 h
HCT-116 [6] = assay: Antiproliferative activity against IC95 biaryl selected human HCT116 cells expressing Kinesin-like protein KIF11 D130V mutant after 72 hrs by Cell titer Glo assay; type: functional, cell-based; conditions: HCT-116, 72 h
HCT-116 [7] = assay: Antiproliferative activity against human HCT116 cells after 72 hrs by Cell titer Glo assay; type: functional, cell-based; conditions: HCT-116, 72 h
HCT-116 [8] = assay: Antiproliferative activity against IC95 biaryl selected drug-resistant against human HCT116 cells after 72 hrs by Cell titer Glo assay; type: functional, cell-based; conditions: HCT-116, 72 h
HCT-116 [9] = assay: Antiproliferative activity against human HCT116 cells expressing Kinesin-like protein KIF11 D130V mutant after 72 hrs by Cell titer Glo assay; type: functional, cell-based; conditions: HCT-116, 72 h
HCT-116 [10] = assay: Antiproliferative activity against IC50 biaryl selected human HCT116 cells expressing Kinesin-like protein KIF11 D130V mutant after 72 hrs by Cell titer Glo assay; type: functional, cell-based; conditions: HCT-116, 72 h

Ki [1] [nM] | Activity [2] | IC50 (HCT-116 [3]) [nM] | IC50 (HCT-116 [4]) [nM] | IC50 (HCT-116 [5]) [nM] | IC50 (HCT-116 [6]) [nM] | IC50 (HCT-116 [7]) [nM] | IC50 (HCT-116 [8]) [nM] | IC50 (HCT-116 [9]) [nM] | IC50 (HCT-116 [10]) [nM] | Structure (SMILES)
330 | Active |  |  |  |  |  |  |  |  | NC(=O)Nc1ccc(-c2ccc(C3(C(F)(F)F)N=N3)cc2)cc1
 |  | 8.7 | 0.35 | 0.31 | 0.59 | 0.3 | 0.18 | 0.23 | 0.2 | CC(=O)O[C@@]12CO[C@@H]1C[C@H](O)[C@@]1(C)C(=O)[C@H](O)C3=C(C)[C@@H](OC(=O)[C@H](O)[C@@H](NC(=O)OC(C)(C)C)c4ccccc4)C[C@@](O)([C@@H](OC(=O)c4ccccc4)[C@H]21)C3(C)C [DOCETAXEL]
 |  | 22 | 87.3 | 0.72 | 675 | 0.46 | 1 | 903 | 1190 | Cc1ccc(C(=O)N(CCCN)[C@@H](c2nc3cc(Cl)ccc3c(=O)n2Cc2ccccc2)C(C)C)cc1F
